Consider 36 molecules from ChEMBL document CHEMBL5576152, “Antitubercular evaluation of dihydropyridine-triazole conjugates: design, synthesis, in vitro screening, SAR and in silico ADME predictions” (RSC Med Chem, 2024).

The nature of series [1]: Cytotoxicity against human THP-1 cells assessed as reduction in cell viability incubated for 48 hrs by resazurin assay. Type of series: toxicity, cell-based.
Series [2] relates to Mycobacterium tuberculosis. Put plainly: Antitubercular activity against Mycobacterium tuberculosis H37Ra assessed as reduction in microbial growth incubated for 5 days by resazurin microtiter assay. In kind it is functional. The conditions noted are these: 120 h, time 5 day.
Series [3] in a line: Selectivity index, ratio of CC50 for cytotoxicity against human THP-1 cells to MIC90 for antitubercular activity against Mycobacterium tuberculosis H37Ra. Type of series: toxicity, cell-based. The conditions noted are these: read-out: Selectivity Index.
Series [4] can be described thus: Tmax in Sprague-Dawley rat at 50 mg/kg, po measured for 5 to 1440 mins by LC-MS/MS analysis. In kind it is ADME, organism-based. The conditions noted are these: in vivo, time 5-1440 min.
The nature of series [5]: MRT in Sprague-Dawley rat at 50 mg/kg, po measured for 5 to 1440 mins by LC-MS/MS analysis. Type of series: ADME, organism-based. The conditions noted are these: in vivo, time 5-1440 min.
Series [6] can be described thus: Apparent volume of distribution in Sprague-Dawley rat at 50 mg/kg, po measured for 5 to 1440 mins by LC-MS/MS analysis. The conditions noted are these: in vivo, time 5-1440 min. In kind it is ADME, organism-based.
Series [7] is described as follows: Stability of compound in simulated intestinal fluid assessed as remaining compound at pH 6.8 measured upto 120 mins by UPLC analysis. Type of series: ADME. The conditions noted are these: read-out: Stability.
The nature of series [8]: Stability of compound in simulated gastric fluid assessed as remaining compound at pH 1.2 measured upto 120 mins by UPLC analysis. In kind it is ADME. The conditions noted are these: read-out: Stability.
Series [9] is described as follows: Cmax in Sprague-Dawley rat at 50 mg/kg, po measured for 5 to 1440 mins by LC-MS/MS analysis. The conditions noted are these: in vivo, time 5-1440 min. Type of series: ADME, organism-based.
A short description of series [10]: Stability of compound in simulated physiological fluid assessed as remaining compound at pH 7.4 measured upto 120 mins by UPLC analysis. The conditions noted are these: read-out: Stability. In kind it is ADME.
Series [11] in a line: Stability of compound in rat plasma assessed as remaining compound measured upto 120 mins by UPLC analysis. The conditions noted are these: read-out: Stability. In kind it is ADME, cell-free.
Series [12] can be described thus: Half life in Sprague-Dawley rat at 50 mg/kg, po measured for 5 to 1440 mins by LC-MS/MS analysis. Type of series: ADME, organism-based. The conditions noted are these: in vivo, time 5-1440 min.
In series [13] the test system is Mycobacterium tuberculosis. The series can be described thus: Antitubercular activity against Mycobacterium tuberculosis H37Rv assessed as reduction in microbial growth by BACTEC 460-radiometric assay. Type of series: functional.
Series [14] deals with Mycobacterium tuberculosis. Put plainly: Antitubercular activity against Mycobacterium tuberculosis H37Rv assessed as reduction in microbial growth by microplate alamar blue assay. In kind it is functional.
For series [15], the system named is Mycobacterium tuberculosis. Put plainly: Antitubercular activity against Mycobacterium tuberculosis H37Ra assessed as reduction in microbial growth at 2 ug/ml incubated for 5 days by resazurin microtiter assay relative to control. In kind it is functional. The conditions noted are these: 120 h, time 5 day.
Series [16] concerns Mycobacterium tuberculosis. The series can be described thus: Antitubercular activity against Mycobacterium tuberculosis H37Ra assessed as reduction in microbial growth at 6 ug/ml incubated for 5 days by resazurin microtiter assay relative to control. The conditions noted are these: 120 h, time 5 day. Type of series: functional.

Values after ≈ are worked out from the molar mass of the structure shown.

For the molecule `CC1=C(C(=O)NCc2cn(-c3ccc(C)cc3)nn2)C(c2ccc(Cl)cc2)C2=C(CC(C)(C)CC2=O)N1` (stereo not given), the CC50 at 48 h in series [1] came out at 44.3 µg/mL (≈ 85.9 µM). For the same molecule, the MIC90 in series [2] came out at 6.44 µg/mL. Besides, the selectivity ratio in series [3] was 6.88.

For the molecule `CC1=C(C(=O)NCc2cn(Cc3ccccc3)nn2)C(c2ccccc2)C2=C(CC(C)(C)CC2=O)N1` (stereo not given), the MIC90 in series [2] is above 25 µg/mL. Consider `COc1cc(C2C(C(=O)NCc3cn(-c4ccccc4)nn3)=C(C)NC3=C2C(=O)CC(C)(C)C3)cc(OC)c1OC` (stereo not given), for which the MIC90 in series [2] was above 25 µg/mL.

Take `COc1ccc(-n2cc(CNC(=O)C3=C(C)NC4=C(C(=O)CC(C)(C)C4)C3c3cccc(Cl)c3)nn2)cc1` (stereo not given): the MIC90 in series [2] is above 25 µg/mL. Regarding `CC1=C(C(=O)NCc2cn(-c3ccc(F)cc3)nn2)C(c2ccc(Cl)cc2)C2=C(CC(C)(C)CC2=O)N1` (stereo not given), the MIC90 in [2] turned out to be 25.9 µg/mL. Take `COc1cc(C2C(C(=O)NCc3cn(-c4cccc(C(F)(F)F)c4)nn3)=C(C)NC3=C2C(=O)CC(C)(C)C3)cc(OC)c1OC` (stereo not given): in series [2], the MIC90 was above 25 µg/mL. In the case of `COc1ccc(C2C(C(=O)NCc3cn(-c4cccc(C(F)(F)F)c4)nn3)=C(C)NC3=C2C(=O)CC(C)(C)C3)cc1` (stereo not given), in series [2], the MIC90 is above 25 µg/mL. On to `CC1=C(C(=O)NCc2cn(-c3ccccc3)nn2)C(c2ccccc2)C2=C(CC(C)(C)CC2=O)N1` (stereo not given), for which the MIC90 in series [2] was above 25 µg/mL. Turning to `CC1=C(C(=O)NCc2cn(-c3ccc(C)cc3)nn2)C(c2ccccc2)C2=C(CC(C)(C)CC2=O)N1` (stereo not given), in series [2], the MIC90 is 24.1 µg/mL. Regarding `COc1cc(C2C(C(=O)NCc3cn(-c4ccc(F)cc4)nn3)=C(C)NC3=C2C(=O)CC(C)(C)C3)cc(OC)c1OC` (stereo not given), the MIC90 in series [2] is above 25 µg/mL. As for `CC1=C(C(=O)NCc2cn(-c3ccc(F)cc3)nn2)C(c2cccs2)C2=C(CC(C)(C)CC2=O)N1` (stereo not given), in series [2], the MIC90 was above 25 µg/mL. For the molecule `COc1ccc(-n2cc(CNC(=O)C3=C(C)NC4=C(C(=O)CC(C)(C)C4)C3c3cccs3)nn2)cc1` (stereo not given), the MIC90 in series [2] is above 25 µg/mL. As for `CC1=C(C(=O)NCc2cn(-c3ccccc3)nn2)C(c2ccc(F)cc2)C2=C(CC(C)(C)CC2=O)N1` (stereo not given), in series [2], the MIC90 was determined as 12.1 µg/mL. In the case of `CC1=C(C(=O)NCc2cn(-c3ccc(Cl)cc3)nn2)C(c2scnc2C)C2=C(CC(C)(C)CC2=O)N1` (stereo not given), the MIC90 in series [2] is above 25 µg/mL.

For the molecule `CC1=C(C(=O)NCc2cn(-c3ccc(C)cc3)nn2)C(c2ccc(F)cc2)C2=C(CC(C)(C)CC2=O)N1` (stereo not given), in series [1], the CC50 at 48 h is above 99.8 µg/mL. The Tmax in series [4] came to 1.33 h. Besides, in [2], the MIC90 came out at 6.24 µg/mL. For the same molecule, the MRT in [5] was 6.69 h. Moreover, the “Vd(app)” value in series [6] was found to be 0.02778 L/kg. Besides, the remaining at 2 h in series [7], in series [8], in series [10] and in [11] was at least 70% in each case. Further, the selectivity ratio in series [3] was above 16. Moreover, in series [9], the concentration peaked (Cmax) at 1400 ng/mL. In [12], this molecule showed a half-life of 4.16 h. On to `CC1=C(C(=O)NCc2cn(-c3ccc(C)cc3)nn2)C(c2scnc2C)C2=C(CC(C)(C)CC2=O)N1` (stereo not given), for which the MIC90 in series [2] was above 25 µg/mL. Take `COc1ccc(-n2cc(CNC(=O)C3=C(C)NC4=C(C(=O)CC(C)(C)C4)C3c3ccc(Cl)cc3)nn2)cc1` (stereo not given): the CC50 at 48 h in [1] was 64.6 µg/mL (≈ 121 µM). For the same molecule, the MIC90 in [2] came out at 6.64 µg/mL. Further, in series [3], the selectivity ratio was determined as 9.73.

As for `COc1ccc(C2C(C(=O)NCc3cn(-c4ccccc4)nn3)=C(C)NC3=C2C(=O)CC(C)(C)C3)cc1` (stereo not given), the MIC90 in series [2] is above 25 µg/mL.

On to `COC(=O)C1=C(C)NC(C)=C(C2=NN(C(C)=O)C(c3ccccc3)C2)C1c1cccc([N+](=O)[O-])c1` (stereo not given), for which, in series [13], the MIC is above 12.5 µg/mL. For the molecule `CC1=C(C(=O)NCc2cn(-c3ccccc3)nn2)C(c2ccc(Cl)cc2)C2=C(CC(C)(C)CC2=O)N1` (stereo not given), the CC50 at 48 h in [1] came out at 66.4 µg/mL (≈ 132 µM). In addition, the MIC90 in series [2] came to 6.26 µg/mL. Further, in series [3], the selectivity ratio was determined as 10.6. Turning to `CC1=C(C(=O)NCc2cn(Cc3ccccc3)nn2)C(c2ccc(Cl)cc2)C2=C(CC(C)(C)CC2=O)N1` (stereo not given), the MIC90 in series [2] is above 25 µg/mL. As for `CC1=C(C(=O)NCc2cn(-c3ccc(Cl)cc3)nn2)C(c2ccccc2)C2=C(CC(C)(C)CC2=O)N1` (stereo not given), the MIC90 in series [2] is 25.1 µg/mL. Same read-out and setting: as for `CC1=C(C(=O)NCc2cn(-c3ccc(C)cc3)nn2)C(c2ccc(Cl)cc2)C2=C(CCCC2=O)N1` (stereo not given), the figure is above 25 µg/mL. Turning to `COc1ccc(-n2cc(CNC(=O)C3=C(C)NC4=C(C(=O)CC(C)(C)C4)C3c3ccc(F)cc3)nn2)cc1` (stereo not given), the CC50 at 48 h in series [1] was above 103 µg/mL. Also, the MIC90 in series [2] is 6.44 µg/mL. Moreover, the selectivity ratio in series [3] is above 16.

Consider `CC1=C(C(=O)NCc2cn(-c3ccccc3C(F)(F)F)nn2)C(c2ccc(Cl)cc2)C2=C(CC(C)(C)CC2=O)N1` (stereo not given), for which the MIC90 in series [2] was above 25 µg/mL.

`COc1ccc(-n2cc(CNC(=O)C3=C(C)NC4=C(C(=O)CC(C)(C)C4)C3c3ccccn3)nn2)cc1` (stereo not given): the MIC90 in series [2] is above 25 µg/mL. As to `CC1=C(C(=O)NCc2cn(Cc3ccccc3)nn2)C(c2scnc2C)C2=C(CC(C)(C)CC2=O)N1` (stereo not given), the MIC90 in [2] was above 25 µg/mL. With `CC1=C(C(=O)NCc2cn(-c3ccccc3)nn2)C(c2scnc2C)C2=C(CC(C)(C)CC2=O)N1` (stereo not given), the MIC90 in series [2] is above 25 µg/mL. Take `COc1cc(-n2cc(CNC(=O)C3=C(C)NC4=C(C(=O)CC(C)(C)C4)C3c3ccc(Cl)cc3)nn2)cc(OC)c1OC` (stereo not given): in [2], the MIC90 is above 25 µg/mL. Regarding `COc1ccc(-n2cc(CNC(=O)C3=C(C)NC4=C(C(=O)CC(C)(C)C4)C3c3ccccc3Cl)nn2)cc1` (stereo not given), the MIC90 in [2] stood at 13.3 µg/mL. As to `CC1=C(C(=O)NCc2cn(-c3ccc(C)cc3)nn2)C(c2ccc(F)cc2)C2=C(CCCC2=O)N1` (stereo not given), the MIC90 in series [2] worked out at 11.8 µg/mL. On the same count and under the same terms, the same measure for `CC1=C(C(=O)NCc2cn(-c3ccccc3)nn2)C(c2cccs2)C2=C(CC(C)(C)CC2=O)N1` (stereo not given): above 25 µg/mL. Take `CCCCc1nc(Cl)c(C2C(C(=O)Nc3ccc(F)cc3)=C(C)NC(C)=C2C(=O)Nc2ccc(F)cc2)n1Cc1ccccc1`: the MIC in [14] was 0.02 µg/mL.

For the molecule `CC1=C(C(=O)NCc2cn(-c3ccc(C(C)C)cc3)nn2)C(c2ccc(Cl)cc2)C2=C(CC(C)(C)CC2=O)N1` (stereo not given), in series [2], the MIC90 is 27.2 µg/mL. In the case of `CO[C@H]1/C=C/O[C@@]2(C)Oc3c(C)c(O)c4c(O)c(c(/C=N/N5CCN(C)CC5)c(O)c4c3C2=O)NC(=O)/C(C)=C\C=C\[C@H](C)[C@H](O)[C@@H](C)[C@@H](O)[C@@H](C)[C@H](OC(C)=O)[C@@H]1C` [RIFAMPIN], the inhibition at 2 µg/mL in [15] was above 99%.

As to `CN[C@@H]1[C@H](O[C@H]2[C@H](O[C@H]3[C@H](O)[C@@H](O)[C@H](N=C(N)N)[C@@H](O)[C@@H]3N=C(N)N)O[C@@H](C)[C@]2(O)C=O)O[C@@H](CO)[C@H](O)[C@H]1O` [STREPTOMYCIN], the inhibition at 6 µg/mL in [16] was above 99%.
